PMC8165695 (Journal of Medicinal Chemistry, 2021)
Where a SMILES comes first, the peptide text is derived from it. [ ]: non-standard residue; d: D form. The star is where a group is joined. Sta = CC(C)C[C@H](N)[C@@H](O)CC(=O)O; Isovaleryl = CC(C)CC(=O)*

Assays:
[1] = target: HIV-1 Pr drug resistance-associated mutants; conditions: cited from earlier work
[2] = tested on: C. neoformans strains H99 and may1Δ; assay: Yeast culture activity assay; type: cell-based, Cryptococcus neoformans; conditions: for terminal culture density of yeast: 48 h, 0.1, 1.0, 10 or 50 μM compound
HepG2 = assay: Cytotoxicity, CellTiter-Glo 2.0 Cell Viability Assay; type: cell-based, human; conditions: HepG2 cell line; comparators darunavir, amprenavir, indinavir (ref 40)
HIV-1 Pr wild-type = conditions: cited from earlier work
May1 = target: T1, May1 (Cryptococcus neoformans, UniProt J9VS02); assay: May1 Ki determination, fluorometric assay with IQ-2 substrate; type: biochemical
T1 sequence (J9VS02 80-434 limits assumed): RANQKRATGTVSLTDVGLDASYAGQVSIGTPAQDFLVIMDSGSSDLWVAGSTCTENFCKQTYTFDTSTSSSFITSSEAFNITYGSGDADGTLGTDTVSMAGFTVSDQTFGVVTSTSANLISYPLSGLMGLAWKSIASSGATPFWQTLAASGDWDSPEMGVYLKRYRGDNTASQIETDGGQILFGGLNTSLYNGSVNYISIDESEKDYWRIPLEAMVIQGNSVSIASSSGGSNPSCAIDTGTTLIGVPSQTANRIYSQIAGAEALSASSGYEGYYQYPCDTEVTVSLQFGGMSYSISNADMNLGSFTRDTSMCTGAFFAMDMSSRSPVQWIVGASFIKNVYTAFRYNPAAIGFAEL

In the case of `NC(=O)[C@H](CCc1ccccc1)NC(=O)[C@H](CCC(=O)O)NC(=O)C[C@H](O)[C@H](Cc1ccccc1)NC(=O)OCc1ccccc1` [Compound 13a, (S)-5-(((S)-1-amino-1-oxo-4-phenylbutan-2-yl)amino)-4-((3S,4S)-4-(((benzyloxy)carbonyl)amino)-3-hydroxy-5-phenylpentanamido)-5-oxopentanoic acid], the “Ki for three drug resistance-associated HIV-1 Pr mutants” value [1] is given as 0.024 to 0.32 nM, the “terminal culture density of yeast at 50 μM” value ([2]; H99, YNB minimal medium, 48 h, 50 μM) is given as “nearly phenocopying the may1Δ mutant” and the “terminal culture density of yeast” value ([2]; H99, YNB minimal medium) is given as “dose-dependent reductions in terminal culture density”. The “culture density during logarithmic phase growth” value ([2]; H99, unbuffered YNB, 50 μM) was “achieved similar densities to 1b- or DMSO-treated controls during the logarithmic phase growth”, the “saturation density phenotype in buffered medium” value ([2]; YNB with 50 mM MES, pH 6.5, 50 μM) was “eliminated the saturation density phenotype” and the “culture density of may1Δ yeast” value ([2]; may1Δ strain, unbuffered YNB, 50 μM) was “did not further reduce culture densities during either the logarithmic or the stationary phase”. The “cytotoxicity compared with clinically used protease inhibitors” value (HepG2) was “on par with or lower than that of clinically used protease inhibitors” and the “inhibition of wild-type HIV-1 Pr (in words)” value (HIV-1 Pr wild-type) was “potent, subnanomolar inhibitor”.
In the case of `CC(C)[C@H](NC(=O)[C@H](CCC(=O)O)NC(=O)C[C@H](O)[C@H](Cc1ccccc1)NC(=O)OCc1ccccc1)C(N)=O` [Compound 3a, (S)-5-(((S)-1-amino-3-methyl-1-oxobutan-2-yl)amino)-4-((3S,4S)-4-(((benzyloxy)carbonyl)amino)-3-hydroxy-5-phenylpentanamido)-5-oxopentanoic acid], the “terminal culture density of yeast” value ([2]; H99, YNB minimal medium) is reported as “dose-dependent reductions in terminal culture density”.
`CC(C)CC(=O)N[C@H](C(=O)N[C@H](C(=O)N[C@@H](CC(C)C)[C@@H](O)CC(=O)N[C@@H](C)C(=O)N[C@@H](CC(C)C)[C@@H](O)CC(=O)O)C(C)C)C(C)C` [PepA, pepstatin A] (Isovaleryl-VV[Sta]A[Sta]-OH) gave a Ki (May1) of 1.3 ± 0.1 nM.
With `CCCC[C@H](NC(=O)[C@H](CCC(=O)O)NC(=O)C[C@H](O)[C@H](Cc1ccccc1)NC(=O)OCc1ccccc1)C(N)=O` [Compound 4a, (S)-5-(((S)-1-amino-1-oxohexan-2-yl)amino)-4-((3S,4S)-4-(((benzyloxy)carbonyl)amino)-3-hydroxy-5-phenylpentanamido)-5-oxopentanoic acid] the “terminal culture density of yeast” value ([2]; H99, YNB minimal medium) was “dose-dependent reductions in terminal culture density”.
For `CC(=O)N[C@H](C(=O)N[C@H](C(=O)N[C@@H](CC(C)C)[C@@H](O)CC(=O)N[C@@H](C)C(=O)N[C@@H](CC(C)C)[C@@H](O)CC(=O)O)C(C)C)C(C)C` [acetyl pepstatin] (Ac-VV[Sta]A[Sta]-OH), the Ki (May1) was 3.3 ± 0.1 nM.
